For one assay, the target named is T1, AgamOr29 + AgamOrco (Anopheles gambiae, UniProt A0A1S4H074).
T1 sequence (A0A1S4H074 1-384): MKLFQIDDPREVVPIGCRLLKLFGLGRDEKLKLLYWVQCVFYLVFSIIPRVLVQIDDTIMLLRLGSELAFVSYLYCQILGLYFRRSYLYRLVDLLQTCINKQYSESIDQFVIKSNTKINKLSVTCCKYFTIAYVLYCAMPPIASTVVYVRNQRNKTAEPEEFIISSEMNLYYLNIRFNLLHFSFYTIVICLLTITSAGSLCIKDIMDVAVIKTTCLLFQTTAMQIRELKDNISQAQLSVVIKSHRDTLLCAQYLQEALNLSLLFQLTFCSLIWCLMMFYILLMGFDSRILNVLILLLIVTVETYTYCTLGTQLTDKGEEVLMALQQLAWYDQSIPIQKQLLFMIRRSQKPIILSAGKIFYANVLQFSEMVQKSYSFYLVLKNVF
T1 sequence (Q7QCC7 1-478 partner): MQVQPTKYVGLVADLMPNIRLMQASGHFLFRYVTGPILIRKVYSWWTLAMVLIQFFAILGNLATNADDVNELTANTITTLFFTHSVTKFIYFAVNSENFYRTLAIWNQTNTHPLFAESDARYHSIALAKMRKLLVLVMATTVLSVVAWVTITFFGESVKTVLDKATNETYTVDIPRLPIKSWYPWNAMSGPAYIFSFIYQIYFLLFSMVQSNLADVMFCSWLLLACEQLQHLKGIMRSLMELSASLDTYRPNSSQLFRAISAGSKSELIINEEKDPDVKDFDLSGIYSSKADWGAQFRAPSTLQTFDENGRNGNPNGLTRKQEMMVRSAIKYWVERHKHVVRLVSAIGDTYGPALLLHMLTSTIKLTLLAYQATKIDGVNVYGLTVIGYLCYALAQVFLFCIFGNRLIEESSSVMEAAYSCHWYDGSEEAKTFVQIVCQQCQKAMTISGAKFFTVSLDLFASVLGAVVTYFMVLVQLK
Description: two-electrode voltage clamp, Xenopus oocytes. In kind it is cell-based.

Another assay addresses T2, AgamOr53 + AgamOrco (Anopheles gambiae, UniProt A0ABK8FS74).
T2 sequence (A0ABK8FS74 1-384): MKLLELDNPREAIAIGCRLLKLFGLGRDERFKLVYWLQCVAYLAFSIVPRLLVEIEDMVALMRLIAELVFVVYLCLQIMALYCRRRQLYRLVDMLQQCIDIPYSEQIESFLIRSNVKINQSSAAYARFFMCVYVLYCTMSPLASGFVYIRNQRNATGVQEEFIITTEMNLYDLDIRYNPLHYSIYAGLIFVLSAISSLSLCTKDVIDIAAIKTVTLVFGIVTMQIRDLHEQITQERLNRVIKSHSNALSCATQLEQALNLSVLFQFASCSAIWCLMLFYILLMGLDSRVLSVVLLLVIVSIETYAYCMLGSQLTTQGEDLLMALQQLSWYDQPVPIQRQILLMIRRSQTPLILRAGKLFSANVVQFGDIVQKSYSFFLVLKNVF
T2 sequence (Q7QCC7 1-478 partner): T1 sequence (Q7QCC7 1-478 partner)
Description: two-electrode voltage clamp, Xenopus oocytes. In kind it is cell-based.

SMILES strings stand for the structures.

As to `C=C[C@](C)(O)CCC=C(C)C` [(R)-(–)-linalool], the EC50 was determined as 14.7 µM at AgamOr29 + AgamOrco and 14.9 µM at AgamOr53 + AgamOrco.

Turning to `C=C[C@@](C)(O)CCC=C(C)C` [(S)-(+)-linalool], the half-maximal effective concentration (EC50) was determined as 7.1 µM at AgamOr29 + AgamOrco and 19.1 µM at AgamOr53 + AgamOrco.

A word on the EC50: it is the concentration needed to bring the measured effect to its halfway point.
